Laboratory results published in patent US5496849A, “Sulfonic acid derivative and its pharmaceutical application” (Toray Industries, Inc., priority 1992, dated 1996).

Experiments:
[1] = system: vasoconstriction of rat thoracic aorta induced by U-46619; assay: Vasoconstriction inhibitory action (U-46619-induced constriction of thoracic aorta spiral specimens); parameters: species or system long Evans rats; conditions: 10 min, pH 7.4, minimum concentration at which inhibition rate was 50% or more, 10 ng/ml U-46619, drug applied 10 minutes, 37° C., read-out: Vasoconstriction Inhibitory Action MIC
Procedure: Male and female long Evans rats having body weights of 150-200 g were used in this example. After sacrificing the animals by decapitation, the thoracic aorta was removed, and the outer membrane was peeled off to obtain I2 spiral specimens roughly 2 cm in length. Blood vessel specimens were warmed to 37° C. and preserved in a Magnus tube containing 10 ml of a nutrient solution aerated with 95% oxygen+5% carbon dioxide gas. The nutrient solution contained 118.3 mmol of NaCl, 4.7 mmol of KCl, […] of CaCl, 1.2 mmol of MgSO4, 1.2 mmol of KH2 PO4, 25 mmol of NaCHO3, 11.1 mmol of D-glucose, 0.03 mmol of EDTA along with 1 μg/ml each of atropin, phentolamine, mepiramine, cyproheptadine, propranolol and indometacin, and was adjusted to a pH of 7.4. Vasoconstriction was measured using an isometric transducer (Harward UF-1 Transducer and Sekonic SS-250F Graph recorder). An equilibration time of 3 hours was provided after the blood vessels were installed on the Magnus device, and fresh nutrient solution was replaced every 30 minutes during that time. […] of U-46619, having TXA2 action (to reach roughly 75% of maximum constriction), was applied for 30 minutes to constrict the vessels. The maximum stable constriction during this time was taken to be the control constriction (C1). Next, the blood vessels were washed several times with nutrient solution to remove the drug. After allowing a recovery period of 30 minutes, the test drugs were applied at various concentrations for 10 minutes followed by again constricting the vessels by applying 10 ng/ml of U-46619 for 30 minutes. The maximum stable constriction during this time was taken to be the constriction of the test drugs (C2). The inhibition rates of vasoconstriction induced by the drugs and U-46619 were determined according to the following formula, and the minimum concentration at which the inhibition rate was 50% or more was determined as the minimum inhibitory concentration (MIC).
((C1-C2)/C1)×100=Inhibition rate (%)

Thromboxane A2 Receptor = biological target: T1, Thromboxane A2 Receptor (Oryctolagus cuniculus, UniProt Q6WQI8); assay: Receptor binding experiment: Thromboxane A2 Receptor Binding Test ([3H]SQ29548, washed platelets); parameters: species or system New Zealand White rabbits; conditions: rabbit washed platelets; [3H]SQ29548 3 nM; 60 minutes at 25° C.; read-out: Binding Inhibitory Action IC50 (converted)
T1 sequence (Q6WQI8 1-233): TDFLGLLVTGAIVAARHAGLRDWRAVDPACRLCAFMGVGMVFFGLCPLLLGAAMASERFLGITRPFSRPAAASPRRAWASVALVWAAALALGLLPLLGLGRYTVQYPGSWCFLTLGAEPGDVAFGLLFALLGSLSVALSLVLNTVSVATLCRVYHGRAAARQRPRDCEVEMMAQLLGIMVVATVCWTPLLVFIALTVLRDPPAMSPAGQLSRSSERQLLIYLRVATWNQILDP
Procedure: Whole blood from New Zealand White rabbits was collected into a container containing ACD solution (1.175 g of sodium citrate, 0.685 g of citric acid, and 1 g of dextrose dissolved in 50 ml of distilled water) followed by centrifuging at room temperature for 10 minutes at 180 ×g to obtain platelet-rich plasma. Moreover, this platelet-rich plasma was further centrifuged at room temperature and 2800 ×g to result in sedimentation of the platelets. The platelets were resuspended in 50 mM Tris hydrochloric acid buffer solution (pH 7.2, containing […]) and again centrifuged at 4° C. for 15 minutes at 2800 ×g. This procedure was repeated twice to prepare the washed platelets, and adjusted to a final concentration of 10 mg/ml (wet weight). Tritium-labelled SQ29548 ([3H]SQ29548) was used for the TXA2 ligand. In an antagonism experiment, 20 μl of [3H]SQ29548 at a final concentration of 3 nM were added to 500 μl of a 10 mg/ml platelet suspension, together with adding 2.6 μl of the test drug dissolved in a suitable buffer. After incubating for 60 minutes at 25° C., the mixture was filtered over a glass filter using the Celherbster method, the filter was washed with 50 mM Tris hydrochloric acid buffer solution (3 ×4 ml), and radioactivity was measured with a scintillation counter to determine the amount of [3H]SQ29548 bound to the platelets. In addition, in a saturation test, 20 μl of [3H]SQ29548 were added to a final concentration of 0.1-50 nM followed by the addition of 2.6 μl of BM13505 at a final concentration of 1 μM in order to examine non-specific binding and carry out a binding experiment. The concentration of the test drug which inhibited binding of [3H]SQ29548 by 50% was determined as the IC50 value.

[2] = system: platelet aggregation induced by U-46619 in human platelet-rich plasma (PRP); assay: Platelet aggregation inhibitory action (U-46619-induced, human platelet-rich plasma); format: cell-based; conditions: compounds added 1 minute before U-46619, turbidity
Procedure: Human whole blood drawn from the median cubital vein was centrifuged for 10 minutes at 800 rpm, and the upper portion was collected as platelet-rich plasma (PRP). […] The size of the aggregates were measured with a platelet aggregate measuring instrument (Hematracer 1, Nikko Bioscience) as the change in turbidity. The compounds were added 1 minute before addition of U-46619, and the concentration which inhibits aggregation by 50% was calculated as the IC50 value.

SMILES | minimal effective concentration [1] | IC50 (Thromboxane A2 Receptor) | IC50 [2]
O=C(O)c1cccc2c1O[C@H]1C[C@@H](O)[C@H](NS(=O)(=O)c3ccccc3)[C@@H]21 (racemic) [(39), (1RS, 2RS, 3aSR, 8bRS)-1-benzenesulfonamido-2-hydroxy-2,3,3a,8b-tetrahydro-1H-cyclopenta[b]benzofuran-5-carboxylic acid] | 0.25 µg/mL | – | –
O=C(O)Cc1cccc2c1O[C@H]1C[C@@H](O)[C@H](NS(=O)(=O)c3ccccc3)[C@@H]21 (racemic) [(41), (1RS, 2RS, 3aSR, 8bRS)-1-benzenesulfonamido-2-hydroxy-2,3,3a,8b-tetrahydro-1H-cyclopenta[b]benzofuran-5-acetic acid] | 0.25 µg/mL | 2080 nM | 1700 nM
O=C(O)CCc1cccc2c1O[C@H]1C[C@@H](O)[C@H](NS(=O)(=O)c3ccccc3)[C@@H]21 (racemic) [(43), (1RS, 2RS, 3aSR, 8bRS)-1-benzenesulfonamido-2-hydroxy-2,3,3a,8b-tetrahydro-1H-cyclopenta[b]benzofuran-5-propionic acid] | 0.3 µg/mL | 322 nM | 510 nM
O=C(O)CCCc1cccc2c1O[C@H]1C[C@@H](O)[C@H](NS(=O)(=O)c3ccccc3)[C@@H]21 (racemic) [(45), (1RS, 2RS, 3aSR, 8bRS)-1-benzenesulfonamido-2-hydroxy-2,3,3a,8b-tetrahydro-1H-cyclopenta[b]benzofuran-5-butyric acid] | – | 4790 nM | 4300 nM
COC(=O)COc1cccc2c1O[C@H]1C[C@@H](O)[C@H](NS(=O)(=O)c3ccccc3)[C@@H]21 (racemic) [(46), (1RS, 2RS, 3aSR, 8bRS)-1-benzenesulfonamido-2-hydroxy-2,3,3a,8b-tetrahydro-1H-cyclopenta[b]benzofuran-5-yloxyacetic acid methyl ester] | 0.03 µg/mL | 23.1 nM | 68 nM
O=C(O)COc1cccc2c1O[C@H]1C[C@@H](O)[C@H](NS(=O)(=O)c3ccccc3)[C@@H]21 (racemic) [(47), (1RS, 2RS, 3aSR, 8bRS)-1-benzenesulfonamido-2-hydroxy-2,3,3a,8b-tetrahydro-1H-cyclopenta[b]benzofuran-5-yloxyacetic acid] | 0.025 µg/mL | 7.4 nM | 18 nM
COc1ccc(S(=O)(=O)N[C@@H]2[C@H]3c4cccc(OCC(=O)O)c4O[C@H]3C[C@H]2O)cc1 (racemic) [(51), (1RS, 2RS, 3aSR, 8bRS)-1-(p-methoxybenzenesulfonamido)-2-hydroxy-2,3,3a,8b-tetrahydro-1H-cyclopenta[b]benzofuran-5-yloxyacetic acid] | 0.1 µg/mL | 27.6 nM | 68 nM
O=C(O)COc1cccc2c1O[C@H]1C[C@@H](O)[C@H](NS(=O)(=O)c3ccc(F)cc3)[C@@H]21 (racemic) [(53), (1RS, 2RS, 3aSR, 8bRS)-1-(p-fluorobenzenesulfonamido)-2-hydroxy-2,3,3a,8b-tetrahydro-1H-cyclopenta[b]benzofuran-5-yloxyacetic acid] | 0.05 µg/mL | 21 nM | 33 nM
O=C(O)COc1cccc2c1O[C@H]1C[C@@H](O)[C@H](NS(=O)(=O)c3ccc(C(F)(F)F)cc3)[C@@H]21 (racemic) [(65), (1RS, 2RS, 3aSR, 8bRS)-1-(p-trifluoromethylbenzenesulfonamido)-2-hydroxy-2,3,3a,8b-tetrahydro-1H-cyclopenta [b]benzofuran-5-yloxyacetic acid] | – | 97.2 nM | 270 nM
O=C(O)COc1cccc2c1O[C@H]1C[C@@H](O)[C@H](NS(=O)(=O)Cc3ccccc3)[C@@H]21 (racemic) [(74), (1RS, 2RS, 3aSR, 8bRS)-1-phenylmethanesulfonamido-2-hydroxy-2,3,3a,8b-tetrahydro-1H-cyclopenta[b]benzofuran-5-yloxyacetic acid] | – | 858 nM | 5300 nM
O=C(O)COc1cccc2c1O[C@H]1C[C@@H](O)[C@H](NS(=O)(=O)CCc3ccccc3)[C@@H]21 (racemic) [(76), (1RS, 2RS, 3aSR, 8bRS)-1-(2-phenylethanesulfonamido)-2-hydroxy-2,3,3a,8b-tetrahydro-1H-cyclopenta[b]benzofuran-5-yloxyacetic acid] | – | 122 nM | 550 nM
O=C(O)COc1cccc2c1O[C@H]1C[C@@H](O)[C@H](NS(=O)(=O)c3ccc4ccccc4c3)[C@@H]21 (racemic) [(78), (1RS, 2RS, 3aSR, 8bRS)-1-(2-naphthalenesulfonamido)-2-hydroxy-2,3,3a,8b-tetrahydro-1H-cyclopenta[b]benzofuran-5-yloxyacetic acid] | – | 2.09 nM | 51 nM
CCCCS(=O)(=O)N[C@@H]1[C@H]2c3cccc(OCC(=O)O)c3O[C@H]2C[C@H]1O (racemic) [(82), (1RS, 2RS, 3aSR, 8bRS)-1-butanesulfonamido-2-hydroxy-2,3,3a,8b-tetrahydro-1H-cyclopenta[b]benzofuran-5-yloxyacetic acid] | – | 1220 nM | 1000 nM
CCCCCCCCS(=O)(=O)N[C@@H]1[C@H]2c3cccc(OCC(=O)O)c3O[C@H]2C[C@H]1O (racemic) [(84), (1RS, 2RS, 3aSR, 8bRS)-1-octanesulfonamido-2-hydroxy-2,3,3a,8b-tetrahydro-1H-cyclopenta[b]benzofuran-5-yloxyacetic acid] | – | 1220 nM | 7300 nM
COC(=O)COc1cccc2c1O[C@H]1C[C@@H](O)[C@H](CNS(=O)(=O)c3ccccc3)[C@@H]21 (racemic) [(96), (1SR, 2RS, 3aSR, 8bSR)-1-((benzenesulfonamido)methyl)-2-hydroxy-2,3,3a,8b-tetrahydro-1H-cyclopenta[b]benzofuran-5-yloxyacetic acid methyl ester] | – | 415 nM | 670 nM
Cc1ccc(S(=O)(=O)O[C@H]2CC[C@@H]3Oc4c(OCC(=O)O)cccc4[C@@H]32)cc1 (racemic) [(123), (1SR, 3aSR, 8bSR)-1-((p-tolyl)sulfonyloxy)-2,3,3a,8b-tetrahydro-1H-cyclopenta[b]benzofuran-5-yloxyacetic acid] | – | – | 93 nM
O=C(O)COc1cccc2c1O[C@H]1CC[C@H](OS(=O)(=O)c3ccc(Cl)cc3)[C@@H]21 (racemic) [(125), (1SR, 3aSR, 8bSR)-1-((p-chlorophenyl)sulfonyloxy)-2,3,3a,8b-tetrahydro-1H-cyclopenta[b]benzofuran-5-yloxyacetic acid] | – | – | 94 nM
O=C(O)COc1cccc2c1O[C@H]1CC[C@H](OS(=O)(=O)c3ccc(F)cc3)[C@@H]21 (racemic) [(127), (1SR, 3aSR, 8bSR)-1-((p-fluorophenyl)sulfonyloxy)-2,3,3a,8b-tetrahydro-1H-cyclopenta[b]benzofuran-5-yloxyacetic acid] | – | – | 100 nM
